Measured values from patent publication US10669272B2, “Substituted naphthyridinone compounds useful as T cell activators” (BRISTOL-MYERS SQUIBB COMPANY, priority 2018, dated 2020).
Like-named read-outs stand apart in the source and are kept apart here.

Legend:
human DGKζ = molecular target: T1, human DGKζ (Homo sapiens, UniProt Q13574); assay: DGKζ LIPGLO assay (extruded liposome substrate), in vitro DGK inhibition; type: biochemical; settings: liposome (LIPGLO) assay; read-out: DGKz LIPGLO IC50
T1 construct: TVMV protease cleavage site (C); Hexa-His (C); made in house; host or cells: Sf9 insect cells (baculovirus, Bac-to-Bac)

[1] = test system: OT-1 CD8+ T cells with SIINFEKL-loaded MC38 tumor cells; assay: Murine cytotoxic T lymphocyte assay (IFN-γ, OT-1 CTL with MC38 tumor cells); type: cell-based, mouse; settings: read-out: msCTL INFg IC50
Method in brief: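 IFN-γ was quantified by AlphaLISA in supernatants after 24 h co-culture at 37° C. Effectors were OT-1 CD8+ CTLs (5-day peptide/mIL2 expansion), exposed 1 h to DGK inhibitors before mixing 1:10 with MC38 tumor cells loaded 3 h with 1 μg/mL SIINFEKL peptide.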

Human venous whole blood = assay: Human whole blood IFN-γ assay; type: cell-based; settings: human whole blood, normalized to 3 μM reference compound with anti-CD3 plus anti-CD28 as 100% activation, read-out: INFg Whole Blood Normalized Agonist EC50;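 also: blood from healthy donors exposed to compound for 1 h before stimulation with anti-CD3 and anti-CD28 at 1 µg/mL each, IFN-γ quantified in supernatant by AlphaLISA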
naïve human CD8 T cells = assay: Human CD8 T cells IFN-γ assay; type: cell-based; settings: normalized to 3 μM reference compound with anti-CD3 plus anti-CD28 as 100% activation, read-out: HuCD8 INFG Normalized EC50;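 also: Naïve human CD8 T cells stimulated with plate-bound anti-CD3 and soluble anti-CD28, IFN-γ in supernatant quantified by AlphaLISA and converted to pg/mL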
human DGKα = molecular target: T2, human DGKα (Homo sapiens, UniProt P23743); assay: DGKα LIPGLO assay (extruded liposome substrate), in vitro DGK inhibition; type: biochemical; settings: liposome (LIPGLO) assay; read-out: DGKa LIPGLO IC50
T2 construct: TVMV protease cleavage site (C); Hexa-His (C); made in house; host or cells: Sf9 insect cells (baculovirus, Bac-to-Bac)
T2 sequence (P23743 with tags, fused parts or gaps): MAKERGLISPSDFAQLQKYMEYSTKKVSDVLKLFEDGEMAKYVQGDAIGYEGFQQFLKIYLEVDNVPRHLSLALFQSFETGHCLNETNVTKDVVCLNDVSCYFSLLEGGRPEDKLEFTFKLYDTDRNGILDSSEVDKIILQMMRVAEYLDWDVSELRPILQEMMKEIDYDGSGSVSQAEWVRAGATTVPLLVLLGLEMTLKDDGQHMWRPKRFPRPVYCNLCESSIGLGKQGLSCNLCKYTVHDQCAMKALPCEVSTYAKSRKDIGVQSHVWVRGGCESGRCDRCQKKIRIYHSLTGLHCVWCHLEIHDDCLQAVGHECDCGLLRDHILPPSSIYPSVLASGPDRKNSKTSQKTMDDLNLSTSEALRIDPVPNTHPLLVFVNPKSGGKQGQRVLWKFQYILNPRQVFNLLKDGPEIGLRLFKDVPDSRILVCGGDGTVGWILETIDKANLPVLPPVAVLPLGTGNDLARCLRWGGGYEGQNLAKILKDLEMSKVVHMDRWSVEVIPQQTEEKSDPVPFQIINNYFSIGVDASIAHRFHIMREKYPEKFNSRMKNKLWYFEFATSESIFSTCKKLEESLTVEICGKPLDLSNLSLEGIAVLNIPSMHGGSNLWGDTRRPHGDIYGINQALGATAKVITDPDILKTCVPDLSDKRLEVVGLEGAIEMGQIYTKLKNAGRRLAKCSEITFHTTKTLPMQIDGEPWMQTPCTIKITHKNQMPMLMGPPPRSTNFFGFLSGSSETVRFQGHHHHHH

T1 sequence (Q13574 with tags, fused parts or gaps isoform Q13574-4): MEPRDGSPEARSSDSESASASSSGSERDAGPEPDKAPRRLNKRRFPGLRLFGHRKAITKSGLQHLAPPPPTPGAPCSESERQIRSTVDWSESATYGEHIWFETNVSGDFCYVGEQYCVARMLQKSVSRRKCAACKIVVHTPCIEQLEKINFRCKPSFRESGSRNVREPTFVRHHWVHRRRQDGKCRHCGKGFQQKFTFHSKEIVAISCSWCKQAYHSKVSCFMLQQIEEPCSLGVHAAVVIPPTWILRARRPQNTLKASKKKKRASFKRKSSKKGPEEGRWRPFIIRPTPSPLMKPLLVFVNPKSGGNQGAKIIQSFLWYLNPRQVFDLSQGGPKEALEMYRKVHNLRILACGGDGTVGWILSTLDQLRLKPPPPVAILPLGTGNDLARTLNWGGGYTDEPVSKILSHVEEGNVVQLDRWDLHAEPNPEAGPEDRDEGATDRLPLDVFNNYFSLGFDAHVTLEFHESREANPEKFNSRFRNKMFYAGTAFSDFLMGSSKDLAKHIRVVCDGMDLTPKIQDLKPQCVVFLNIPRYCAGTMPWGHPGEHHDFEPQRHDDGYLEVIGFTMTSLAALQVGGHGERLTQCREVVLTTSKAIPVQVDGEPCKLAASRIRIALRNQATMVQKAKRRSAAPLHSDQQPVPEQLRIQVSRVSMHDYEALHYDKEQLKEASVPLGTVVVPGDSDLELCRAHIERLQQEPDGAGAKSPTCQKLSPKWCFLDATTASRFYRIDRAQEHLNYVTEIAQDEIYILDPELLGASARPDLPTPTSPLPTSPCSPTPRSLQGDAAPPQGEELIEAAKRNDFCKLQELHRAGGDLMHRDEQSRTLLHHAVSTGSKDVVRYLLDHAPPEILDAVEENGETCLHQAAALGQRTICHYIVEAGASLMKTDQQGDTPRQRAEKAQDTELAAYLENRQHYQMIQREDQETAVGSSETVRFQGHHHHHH

Compound | IC50 (human DGKζ) | IC50 (human DGKα) | IC50 ([1]; Mus musculus, MC-38) | EC50 (Human venous whole blood) | EC50 (naïve human CD8 T cells; Homo sapiens, T-cell, 20 h) | EC50 (Human venous whole blood; Homo sapiens, 24 h) | IC50 [1] | EC50 (naïve human CD8 T cells)
COC(=O)C1CN(c2cc(=O)n(C)c3ccc(C#N)nc23)CCN1C(c1ccc(Cl)cc1)c1ccc(Cl)cc1 (single isomer, unassigned) [Example 97, methyl 1-(bis(4-chlorophenyl)methyl)-4-(6-cyano-1-methyl-2-oxo-1,2-dihydro-1,5-naphthyridin-4-yl)piperazine-2-carboxylate] | 1700 nM | 14000 nM | 96 nM | 1700 nM | 57 nM | – | – | –
C[C@H]1CN(c2c(C#N)c(=O)n(C)c3ccc(C#N)nc23)CCN1C(c1ccc(F)cc1)c1ccc(F)cc1 [Example 38, (S)-8-(4-(bis(4-fluorophenyl)methyl)-3-methylpiperazin-1-yl)-5-methyl-6-oxo-5,6-dihydro-1,5-naphthyridine-2,7-dicarbonitrile] | 1800 nM | 2200 nM | 78 nM | – | 67 nM | 3200 nM | – | –
Cn1c(=O)cc(N2CCN(C(c3ccc(F)cc3)c3ccc(F)cc3)C(C(=O)OC3CC3)C2)c2nc(C#N)ccc21 (single isomer, unassigned) [Example 106, cyclopropyl 1-(bis(4-fluorophenyl)methyl)-4-(6-cyano-1-methyl-2-oxo-1,2-dihydro-1,5-naphthyridin-4-yl)piperazine-2-carboxylate] | 13000 nM | 240000 nM | – | – | – | 8500 nM | 2900 nM | 610 nM
C[C@H]1CN(c2cc(=O)n(C)c3ccc(C#N)nc23)CCN1C(c1ccc(F)cc1)c1ccc(F)cc1 [Example 35, (S)-8-(4-(bis(4-fluorophenyl)methyl)-3-methylpiperazin-1-yl)-5-methyl-6-oxo-5,6-dihydro-1,5-naphthyridine-2-carbonitrile] | 770 nM | 21000 nM | 1100 nM | – | 61 nM | 2200 nM | – | –
Cn1c(=O)cc(N2CCN(C(c3ccc(F)cc3)c3ccc(F)cc3)C(CF)C2)c2nc(C#N)ccc21 (stereo not shown) [Example 8, 8-(4-(bis(4-fluorophenyl)methyl)-3-(fluoromethyl)piperazin-1-yl)-5-methyl-6-oxo-5,6-dihydro-1,5-naphthyridine-2-carbonitrile] | 5000 nM | 17000 nM | 1000 nM | – | 230 nM | 14000 nM | – | –
C[C@@H]1CN(c2c(Br)c(=O)n(C)c3ccc(C#N)nc23)[C@@H](C)CN1C(c1ccc(F)cc1)c1ccc(F)cc1 [Example 19, 8-((2S,5R)-4-(bis(4-fluorophenyl)methyl)-2,5-dimethylpiperazin-1-yl)-7-bromo-5-methyl-6-oxo-5,6-dihydro-1,5-naphthyridine-2-carbonitrile] | 240000 nM | 42000 nM | 8700 nM | – | 10000 nM | 20000 nM | – | –
CC(C)C(C)(O)C1CN(c2cc(=O)n(C)c3ccc(C#N)nc23)CCN1C(c1ccc(F)cc1)c1ccc(F)cc1 (single isomer, unassigned) [Example 88, 8-(4-(bis(4-fluorophenyl)methyl)-3-(2-hydroxy-3-methylbutan-2-yl)piperazin-1-yl)-5-methyl-6-oxo-5,6-dihydro-1,5-naphthyridine-2-carbonitrile] | 240000 nM | 140000 nM | – | – | 2000 nM | 10000 nM | 990 nM | –
COC(=O)C1CN(C(c2ccc(F)cc2)c2ccc(F)cc2)CCN1c1c(C#N)c(=O)n(C)c2ccc(C#N)nc12 (single isomer, unassigned) [Example 117, Methyl 4-(bis(4-fluorophenyl)methyl)-1-(3,6-dicyano-1-methyl-2-oxo-1,2-dihydro-1,5-naphthyridin-4-yl)piperazine-2-carboxylate] | 7200 nM | 350 nM | – | 2500 nM | – | – | 270 nM | 280 nM
Cc1cc(C2CN(c3cc(=O)n(C)c4ccc(C#N)nc34)CC(C)N2C(c2ccc(F)cc2)c2ccc(F)cc2)ccn1 (stereo not shown) [Example 84, 8-(4-(bis(4-fluorophenyl)methyl)-3-methyl-5-(2-methylpyridin-4-yl)piperazin-1-yl)-5-methyl-6-oxo-5,6-dihydro-1,5-naphthyridine-2-carbonitrile] | 240000 nM | 81000 nM | 10000 nM | – | 10000 nM | 20000 nM | – | –
Cn1c(=O)cc(N2CCN(C(c3ccc(F)cc3)c3ccc(F)cc3)C(CO)C2)c2nc(C#N)ccc21 (single isomer, unassigned) [Example 2, 8-(4-(bis(4-fluorophenyl)methyl)-3-(hydroxymethyl)piperazin-1-yl)-5-methyl-6-oxo-5,6-dihydro-1,5-naphthyridine-2-carbonitrile] | 3300 nM | 2600 nM | 210 nM | 2700 nM | 120 nM | – | – | –
C[C@@H]1CN(c2cc(=O)n(C)c3ccc(C#N)nc23)CCN1C(c1ccc(F)cc1)c1ccc(F)cc1 [Example 28, (R)-8-(4-(bis(4-fluorophenyl)methyl)-3-methylpiperazin-1-yl)-5-methyl-6-oxo-5,6-dihydro-1,5-naphthyridine-2-carbonitrile] | 2100 nM | 4600 nM | 570 nM | – | 38 nM | 5300 nM | – | –
C[C@@H]1CN(c2c(Cl)c(=O)n(C)c3ccc(C#N)nc23)[C@@H](C)CN1C(c1ccc(F)cc1)c1ccc(F)cc1 [Example 18, 8-((2S,5R)-4-(bis(4-fluorophenyl)methyl)-2,5-dimethylpiperazin-1-yl)-7-chloro-5-methyl-6-oxo-5,6-dihydro-1,5-naphthyridine-2-carbonitrile] | 12000 nM | 800 nM | 10000 nM | – | 250 nM | 20000 nM | – | –

Continued, in another order:

IC50 (human DGKζ) | IC50 (human DGKα) | Compound | IC50 ([1]; Mus musculus, MC-38) | EC50 (Human venous whole blood) | EC50 (naïve human CD8 T cells; Homo sapiens, T-cell, 20 h) | EC50 (Human venous whole blood; Homo sapiens, 24 h) | IC50 [1] | EC50 (naïve human CD8 T cells)
440 nM | 660 nM | Cc1ccc(C(c2ccc(F)cc2)N2C[C@H](C)N(c3cc(=O)n(C)c4ccc(C#N)nc34)C[C@H]2C)cc1 (single isomer, unassigned) [Example 252] | – | 430 nM | – | – | 22 nM | 160 nM
10000 nM | 110000 nM | C[C@@H]1CN(C(c2ccc(F)cc2)c2ccc(F)cc2)CCN1c1cc(=O)n(C)c2ccc(C#N)nc12 [Example 135, (R)-8-(4-(bis(4-fluorophenyl)methyl)-2-methylpiperazin-1-yl)-5-methyl-6-oxo-5,6-dihydro-1,5-naphthyridine-2-carbonitrile] | 3600 nM | – | 10000 nM | 61000 nM | – | –
690 nM | 500 nM | C[C@@H]1CN(c2cc(=O)n(C)c3ccc(C#N)nc23)[C@@H](C)CN1C(c1ccc(F)cc1)c1ccc(Cl)cc1 (single isomer, unassigned) [Example 303] | – | 650 nM | – | – | 57 nM | 160 nM
29000 nM | 68000 nM | C[C@@H]1CN(c2c([N+](=O)[O-])c(=O)n(C)c3ccc(C#N)nc23)[C@@H](C)CN1C(c1ccc(F)cc1)c1ccc(F)cc1 [Example 161, 8-((2S,5R)-4-(bis(4-fluorophenyl)methyl)-2,5-dimethylpiperazin-1-yl)-5-methyl-7-nitro-6-oxo-5,6-dihydro-1,5-naphthyridine-2-carbonitrile] | 1500 nM | – | 520 nM | 8600 nM | – | –
44000 nM | 2400 nM | C[C@@H]1CN(c2c(C#N)c(=O)n(C)c3cccnc23)[C@@H](C)CN1C(c1ccc(F)cc1)c1ccc(F)cc1 [Example 160, 4-((2S,5R)-4-(bis(4-fluorophenyl)methyl)-2,5-dimethylpiperazin-1-yl)-1-methyl-2-oxo-1,2-dihydro-1,5-naphthyridine-3-carbonitrile] | 10000 nM | – | 10000 nM | 20000 nM | – | –
240000 nM | 110000 nM | COc1cc(F)ccc1C(c1ccc(F)cc1)N1C[C@@H](C)N(c2c([N+](=O)[O-])c(=O)n(C)c3ccc(C#N)nc23)C[C@@H]1C (stereo in doubt) [Example 120, 8-((2R,5S)-4-((4-fluoro-2-methoxyphenyl)(4-fluorophenyl)methyl)-2,5-dimethylpiperazin-1-yl)-5-methyl-7-nitro-6-oxo-5,6-dihydro-1,5-naphthyridine-2-carbonitrile] | 4700 nM | – | 1000 nM | 20000 nM | – | –
1300 nM | 470 nM | C[C@@H]1CN(c2cc(=O)n(C)c3ccc(C#N)nc23)[C@@H](C)CN1C(c1ccc(F)cc1)c1ccc(C#N)cc1 (single isomer, unassigned) [Example 306] | 53 nM | – | 54 nM | 530 nM | – | –
640 nM | 170 nM | C[C@@H]1CN(c2cc(=O)n(C)c3ccc(C#N)nc23)[C@@H](C)CN1C(c1ccc(F)cc1)c1ccc(Cl)cc1 (single isomer, unassigned) [Example 302] | – | – | – | 570 nM | 24 nM | 23 nM
